Data taken from patent US6949542B2, “Dihydro-benzo[b][1,4]diazepin-2-one derivatives” (Hoffman-La Roche Inc., priority 2002, dated 2005).

Compound	melting point [°C]
O=C1CC(c2cccc(-c3ccncc3)c2)=Nc2cc(C(F)(F)F)c(Cl)cc2N1 [Example 100, 8-Chloro-4-(3-pyridin-4-yl-phenyl)-7-trifluoromethyl-1,3-dihydro-benzo[b][1,4]diazepin-2-one]	200
CCCN(C)c1cc2c(cc1C(F)(F)F)NC(=O)CC(c1cccc(-c3cnccn3)c1)=N2 [Example 102, 7-(Methyl-propyl-amino)-4-(3-pyrazin-2-yl-phenyl)-8-trifluoromethyl-1,3-dihydro-benzo[b][1,4]diazepin-2-one]	201
Cc1cc2c(cc1Cl)N=C(c1cccc(-c3cnccn3)c1)CC(=O)N2 [Example 103, 7-Chloro-8-methyl-4-(3-pyrazin-2-yl-phenyl)-1,3-dihydro-benzo[b][1,4]diazepin-2-one]	218
Cc1cc2c(cc1C(F)(F)F)N=C(c1cccc(-c3cncnc3)c1)CC(=O)N2 [Example 106, 8-Methyl-4-(3-pyrimidin-5-yl-phenyl)-7-trifluoromethyl-1,3-dihydro-benzo[b][1,4]diazepin-2-one]	238
O=C1CC(c2cccc(-c3ccccn3)c2)=Nc2cc(C(F)(F)F)c(Cl)cc2N1 [Example 107, 8-Chloro-4-(3-pyridin-2-yl-phenyl)-7-trifluoromethyl-1,3-dihydro-benzo[b][1,4]diazepin-2-one]	208
Cc1cc(-c2cccc(C3=Nc4ccc(-n5cccc5)cc4NC(=O)C3)c2)ccn1 [Example 108, 4-[3-(2-Methyl-pyridin-4-yl)-phenyl]-8-pyrrol-1-yl-1,3-dihydro-benzo[b][1,4]diazepin-2-one]	206
O=C1CC(c2cccc(-c3cnccn3)c2)=Nc2cc(C(F)(F)F)c(Cl)cc2N1 [Example 110, 8-Chloro-4-(3-pyrazin-2-yl-phenyl)-7-trifluoromethyl-1,3-dihydro-benzo[b][1,4]diazepin-2-one]	214
O=C1CC(c2cccc(-c3cncnc3)c2)=Nc2cc(C(F)(F)F)c(Cl)cc2N1 [Example 111, 8-Chloro-4-(3-pyrimidin-5-yl-phenyl)-7-trifluoromethyl-1,3-dihydro-benzo[b][1,4]diazepin-2-one]	217
O=C1CC(c2cccc(-c3cccnc3)c2)=Nc2cc(C(F)(F)F)c(Cl)cc2N1 [Example 113, 8-Chloro-4-(3-pyridin-3-yl-phenyl)-7-trifluoromethyl-1,3-dihydro-benzo[b][1,4]diazepin-2-one]	208
Cc1cc(-c2cccc(C3=Nc4cc(F)c(F)cc4NC(=O)C3)c2)ccn1 [Example 115, 7,8-Difluoro-4-[3-(2-methyl-pyridin-4-yl)-phenyl]-1,3-dihydro-benzo[b][1,4]diazepin-2-one]	217
O=C1CC(c2cccc(-c3cccnc3)c2)=Nc2cc(F)c(F)cc2N1 [Example 116, 7,8-Difluoro-4-(3-pyridin-3-yl-phenyl)-1,3-dihydro-benzo[b][1,4]diazepin-2-one]	246
Cc1cc(-c2cccc(C3=Nc4ccc(Cl)cc4NC(=O)C3)c2)cc(C)n1 [Example 118, 8-Chloro-4-[3-(2,6-dimethyl-pyridin-4-yl)-phenyl]-1,3-dihydro-benzo[b][1,4]diazepin-2-one]	236
Cc1cc(-c2cccc(C3=Nc4cc(F)c(F)cc4NC(=O)C3)c2)cc(C)n1 [Example 126, 7,8-Difluoro-4-[3-(2,6-dimethyl-pyridin-4-yl)-phenyl]-1,3-dihydro-benzo[b][1,4]diazepin-2-one]	252
Cc1cc(-c2cccc(C3=Nc4cc(C(F)(F)F)c(Cl)cc4NC(=O)C3)c2)cc(C)n1 [Example 128, 8-Chloro-4-[3-(2,6-dimethyl-pyridin-4-yl)-phenyl]-7-trifluoromethyl-1,3-dihydro benzo[b][1,4]diazepin-2-one]	207
Cc1cncc(-c2cccc(C3=Nc4cc(C(F)(F)F)c(C)cc4NC(=O)C3)c2)n1 [Example 130, 8-Methyl-4-[3-(6-methyl-pyrazin-2-yl)-phenyl]-7-trifluoromethyl-1,3-dihydro-benzo[b][1,4]diazepin-2-one]	211
Cc1cncc(-c2cccc(C3=Nc4cc(C)c(Cl)cc4NC(=O)C3)c2)n1 [Example 131, 8-Chloro-7-methyl-4-[3-(6-methyl-pyrazin-2-yl)-phenyl]-1,3-dihydro-benzo[b][1,4]diazepin-2-one]	235
Cc1cncc(-c2cccc(C3=Nc4cc(Cl)c(C)cc4NC(=O)C3)c2)n1 [Example 132, 7-Chloro-8-methyl-4-[3-(6-methyl-pyrazin-2-yl)-phenyl]-1,3-dihydro-benzo[b][1,4]diazepin-2-one]	254
Cc1cc(-c2cccc(C3=Nc4cc(C)c(Cl)cc4NC(=O)C3)c2)c(C)cn1 [Example 134, 8-Chloro-4-[3-(2,5-dimethyl-pyridin-4-yl)-phenyl]-7-methyl-1,3-dihydro-benzo[b][1,4]diazepin-2-one]	208
Cc1cc(-c2cccc(C3=Nc4cc(C)c(C(F)(F)F)cc4NC(=O)C3)c2)c(C)cn1 [Example 135, 4-[3-(2,5-Dimethyl-pyridin-4-yl)-phenyl]-7-methyl-8-trifluoromethyl-1,3-dihydro benzo[b][1,4]diazepin-2-one]	211
Cc1cc(-c2cccc(C3=Nc4cc(Cl)c(Cl)cc4NC(=O)C3)c2)c(C)cn1 [Example 137, 7,8-Dichloro-4-[3-(2,5-dimethyl-pyridin-4-yl)-phenyl]-1,3-dihydro-benzo[b][1,4]diazepin-2-one]	208
CCc1cnc(C)cc1-c1cccc(C2=Nc3cc(C)c(C(F)(F)F)cc3NC(=O)C2)c1 [Example 148, 4-[3-(5-Ethyl-2-methyl-pyridin-4-yl)-phenyl]-7-methyl-8-trifluoromethyl-1,3-dihydro benzo[b][1,4]diazepin-2-one]	182
CCc1cnc(C)cc1-c1cccc(C2=Nc3ccc(C(F)(F)F)cc3NC(=O)C2)c1 [Example 149, 4-[3-(5-Ethyl-2-methyl-pyridin-4-yl)-phenyl]-8-trifluoromethyl-1,3-dihydro benzo[b][1,4]diazepin-2-one]	183
CCc1cnc(C)cc1-c1cccc(C2=Nc3cc(Cl)c(Cl)cc3NC(=O)C2)c1 [Example 150, 7,8-Dichloro-4-[3-(5-ethyl-2-methyl-pyridin-4-yl)-phenyl]-1,3-dihydro-benzo[b][1,4]diazepin-2-one]	191

More lines, now with the values ahead:

melting point [°C]	Compound
242	O=C1CC(c2cccc(-c3cnccn3)c2)=Nc2cc(OCC(F)(F)F)c(C(F)(F)F)cc2N1 [Example 112, 4-(3-Pyrazin-2-yl-phenyl)-7-(2,2,2-trifluoro-ethoxy)-8-trifluoromethyl-1,3-dihydro-benzo[b][1,4]diazepin-2-one]
223	Cc1cc(-c2cccc(C3=Nc4cc(OCC(F)(F)F)c(C(F)(F)F)cc4NC(=O)C3)c2)ccn1 [Example 114, 4-[3-(2-Methyl-pyridin-4-yl)-phenyl]-7-(2,2,2-trifluoro-ethoxy)-8-trifluoromethyl-1,3-dihydro-benzo[b][1,4]diazepin-2-one]
214	Cc1cc(-c2cccc(C3=Nc4cc(Cl)c(C(F)(F)F)cc4NC(=O)C3)c2)c(C)cn1 [Example 136, 7-Chloro-4-[3-(2,5-dimethyl-pyridin-4-yl)-phenyl]-8-trifluoromethyl-1,3-dihydro benzo[b][1,4]diazepin-2-one]
189	CCOc1cc2c(cc1C(F)(F)F)NC(=O)CC(c1cccc(-c3cc(C)ncc3C)c1)=N2 [Example 139, 4-[3-(2,5-Dimethyl-pyridin-4-yl)-phenyl]-7-ethoxy-8-trifluoromethyl-1,3-dihydro-benzo[b][1,4]diazepin-2-one]
224	Cc1cc2c(cc1Cl)NC(=O)CC(c1cccc(-c3ccnc(C)c3C)c1)=N2 [Example 140, 8-Chloro-4-[3-(2,3-dimethyl-pyridin-4-yl)-phenyl]-7-methyl-1,3-dihydro-benzo[b][1,4]diazepin-2-one]
222	Cc1cc2c(cc1C(F)(F)F)NC(=O)CC(c1cccc(-c3ccnc(C)c3C)c1)=N2 [Example 141, 4-[3-(2,3-Dimethyl-pyridin-4-yl)-phenyl]-7-methyl-8-trifluoromethyl-1,3-dihydro benzo[b][1,4]diazepin-2-one]
200	Cc1nccc(-c2cccc(C3=Nc4ccc(C(F)(F)F)cc4NC(=O)C3)c2)c1C [Example 142, 4-[3-(2,3-Dimethyl-pyridin-4-yl)-phenyl]-8-trifluoromethyl-1,3-dihydro benzo[b][1,4]diazepin-2-one]
212	Cc1nccc(-c2cccc(C3=Nc4cc(Cl)c(C(F)(F)F)cc4NC(=O)C3)c2)c1C [Example 143, 7-Chloro-4-[3-(2,3-dimethyl-pyridin-4-yl)-phenyl]-8-trifluoromethyl-1,3-dihydro benzo[b][1,4]diazepin-2-one]
219	Cc1nccc(-c2cccc(C3=Nc4cc(Cl)c(Cl)cc4NC(=O)C3)c2)c1C [Example 144, 7,8-Dichloro-4-[3-(2,3-dimethyl-pyridin-4-yl)-phenyl]-1,3-dihydro-benzo[b][1,4]diazepin-2-one]
222	Cc1nccc(-c2cccc(C3=Nc4cc(OCC(F)(F)F)c(C(F)(F)F)cc4NC(=O)C3)c2)c1C [Example 145, 4-[3-(2,3-Dimethyl-pyridin-4-yl)-phenyl]-7-(2,2,2-trifluoro-ethoxy)-8-trifluoromethyl-1,3-dihydro-benzo[b][1,4]diazepin-2-one]
217	CCOc1cc2c(cc1C(F)(F)F)NC(=O)CC(c1cccc(-c3ccnc(C)c3C)c1)=N2 [Example 146, 4-[3-(2,3-Dimethyl-pyridin-4-yl)-phenyl]-7-ethoxy-8-trifluoromethyl-1,3-dihydro-benzo[b][1,4]diazepin-2-one]
169	CCc1cnc(C)cc1-c1cccc(C2=Nc3cc(OCC(F)(F)F)c(C(F)(F)F)cc3NC(=O)C2)c1 [Example 151, 4-[3-(5-ethyl-2-methyl-pyridin-4-yl)-phenyl]-7-(2,2,2-trifluoro-ethoxy)-8-trifluoromethyl-1,3-dihydro-benzo[b][1,4]diazepin-2-one]
